# In ChEMBL document CHEMBL1201862, “PubChem BioAssay data set” (2004):
# Calls of active or inactive are those of the source.
# Tests used:
# [1] = target: Protein Rev (Human immunodeficiency virus type 1 group M subtype B (isolate WMJ22)(HIV-1), UniProt P05866); experiment: inhibitors of Rev protein–RRE RNA complex – biochemical, protein-RNA interaction, dose response (AID 842); parameters: species or system Human immunodeficiency virus 1
# [2] = Trypanosoma cruzi growth suppression in host cells – NIH3T3 host cells, beta-gal luminescence, confirmation (AID 2044); format: functional, cell-based;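 further: intracellular parasites grown in NIH/3T3 mouse fibroblasts as host cells; luminescent beta-galactosidase reporter signal from transgenic T. cruzi replicating inside host cells; inhibitors lower the luminescence signal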
# [3] = NIH3T3 cell viability loss – ATP luminescence, mouse fibroblasts, counter-screen, dose response (AID 2010); format: functional, cell-based; details: NIH3T3;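 further: cells exposed to compound for about 90 hours before reading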
# [4] = target: SWI/SNF-related matrix-associated actin-dependent regulator of chromatin subfamily A member 2 (Homo sapiens, UniProt P51531); experiment: Luminescence-based cell-based high throughput dose response assay to identify activators of the function of SWI/SNF related, matrix associated, actin dependent regulator of chromatin, subfamily a, member 2 (SMARCA2, BRM).; format: functional
# [5] = Counterscreen for activators of the function of SWI/SNF related, matrix associated, actin dependent regulator of chromatin, subfamily a, member 2 (SMARCA2, BRM): Luminescence-based cell-based high throughput dose response assay to identify non-selective compounds using the VP16 reporter assay.; format: functional
# [6] = A cytotoxicity screen of small molecule inhibitors of the PhoP region in Salmonella typhi identified in the primary screen. [Related pubchem assays: 1850, 1864, 1985 ]; format: functional
# [7] = Counterscreen for IDE inhibitors: Luminescence-based cell-based high throughput dose response assay to identify compounds that are cytotoxic to HEK cells. [Related pubchem assays: 434962 (Primary screen (IDE inhibitors in singlicate)), 449730 (Counterscreen (Cytotoxicity in triplicate)), 435028 (Confirmation (IDE inhibitors in triplicate)) …; format: functional; details: HEK293
# [8] = target: T1, Voltage-gated N-type calcium channel alpha-1B subunit/Amyloid beta A4 precursor protein-binding family A member 1 (Homo sapiens, UniProt Q00975+Q02410); format: protein assay
# [9] = target: T1, Voltage-gated N-type calcium channel alpha-1B subunit/Amyloid beta A4 precursor protein-binding family A member 1; format: protein assay; remark: listed apart in the source
# [10] = target: T2, Insulin-degrading enzyme (Homo sapiens, UniProt P14735); experiment: Dose Response: Fluorescence polarization-based cell-based high throughput dose response assay for inhibitors of insulin-degrading enzyme (IDE). [Related pubchem assays: 434962 (Primary screen (IDE inhibitors in singlicate)), 449730 (Counterscreen (Cytotoxicity in triplicate)), 435028 (Confirmation (IDE inhibitors in triplicate)), 434984 (Summary …; format: functional
# T2 sequence (P14735 whole entry): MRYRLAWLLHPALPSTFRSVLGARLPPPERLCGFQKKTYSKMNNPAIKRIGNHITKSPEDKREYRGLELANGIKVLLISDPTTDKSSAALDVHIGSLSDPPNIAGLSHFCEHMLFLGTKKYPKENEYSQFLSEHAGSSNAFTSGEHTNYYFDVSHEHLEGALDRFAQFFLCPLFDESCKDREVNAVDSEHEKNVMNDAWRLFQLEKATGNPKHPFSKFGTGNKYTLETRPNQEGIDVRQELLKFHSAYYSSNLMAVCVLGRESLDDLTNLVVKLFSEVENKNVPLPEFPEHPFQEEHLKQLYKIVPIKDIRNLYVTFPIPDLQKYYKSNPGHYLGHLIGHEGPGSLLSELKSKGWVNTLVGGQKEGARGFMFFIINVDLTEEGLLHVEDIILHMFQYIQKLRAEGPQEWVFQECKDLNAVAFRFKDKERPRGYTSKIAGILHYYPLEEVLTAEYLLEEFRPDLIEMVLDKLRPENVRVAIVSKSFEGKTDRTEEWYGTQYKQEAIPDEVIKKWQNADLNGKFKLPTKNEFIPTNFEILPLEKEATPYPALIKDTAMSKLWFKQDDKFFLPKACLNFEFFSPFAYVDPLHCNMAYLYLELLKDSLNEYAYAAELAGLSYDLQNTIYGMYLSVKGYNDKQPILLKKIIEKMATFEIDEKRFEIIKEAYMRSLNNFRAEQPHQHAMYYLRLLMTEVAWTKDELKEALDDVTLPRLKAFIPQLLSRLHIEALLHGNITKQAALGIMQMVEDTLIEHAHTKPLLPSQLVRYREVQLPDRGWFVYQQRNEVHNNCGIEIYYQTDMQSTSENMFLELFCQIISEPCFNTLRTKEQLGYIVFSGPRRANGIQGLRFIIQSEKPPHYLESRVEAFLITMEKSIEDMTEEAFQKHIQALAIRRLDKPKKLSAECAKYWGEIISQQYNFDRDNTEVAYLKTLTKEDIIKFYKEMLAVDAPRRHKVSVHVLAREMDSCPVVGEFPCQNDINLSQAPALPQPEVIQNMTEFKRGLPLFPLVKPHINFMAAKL
# [11] = target: DNA dC->dU-editing enzyme APOBEC-3A (Homo sapiens, UniProt P31941); experiment: A3A deaminase inhibition for selectivity – biochemical, dose response (AID 504722); format: functional
# [12] = target: Glucose-6-phosphate 1-dehydrogenase (Homo sapiens, UniProt P11413); experiment: inhibition of Homo sapiens G6PD, dose series – biochemical, fluorescence, selectivity assay for P. falciparum G6PD inhibitor project, dose response (AID 504792); format: functional
# [13] = Luminescence Cell-Based Dose Retest to Confirm Inhibitors of Cancer Stem Cells. [Related pubchem assays (depositor defined):AID2717, AID2721]; format: functional, Homo sapiens; details: Homo sapiens
# [14] = target: T3, Rac GTPase-activating protein 1 (Homo sapiens, UniProt Q9H0H5); experiment: blockers of MgcRacGAP-driven Rac1 GTP hydrolysis – biochemical, ADP Hunter fluorescence, primary and confirmatory, confirmation (AID 624330); format: functional
# T3 sequence (Q9H0H5 whole entry): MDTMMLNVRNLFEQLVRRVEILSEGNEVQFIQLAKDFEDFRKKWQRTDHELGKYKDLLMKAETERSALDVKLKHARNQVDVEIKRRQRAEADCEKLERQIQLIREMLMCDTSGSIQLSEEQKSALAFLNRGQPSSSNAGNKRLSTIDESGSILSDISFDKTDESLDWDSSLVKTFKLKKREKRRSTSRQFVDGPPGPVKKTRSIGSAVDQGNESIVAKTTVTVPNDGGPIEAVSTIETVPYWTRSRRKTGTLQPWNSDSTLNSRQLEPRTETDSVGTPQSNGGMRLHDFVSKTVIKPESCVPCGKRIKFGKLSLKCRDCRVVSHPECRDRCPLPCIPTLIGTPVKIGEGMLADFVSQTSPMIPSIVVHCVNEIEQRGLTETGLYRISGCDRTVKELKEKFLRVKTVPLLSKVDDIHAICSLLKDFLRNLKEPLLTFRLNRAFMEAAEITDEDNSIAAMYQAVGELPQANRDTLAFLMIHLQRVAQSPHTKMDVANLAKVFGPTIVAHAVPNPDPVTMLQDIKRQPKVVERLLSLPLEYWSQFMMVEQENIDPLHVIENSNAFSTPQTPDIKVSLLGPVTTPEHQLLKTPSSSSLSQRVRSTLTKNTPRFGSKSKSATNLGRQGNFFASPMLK
# [15] = target: T4, Histone-lysine N-methyltransferase NSD2 (Homo sapiens, UniProt O96028); format: biochemical
# T4 sequence (O96028 whole entry): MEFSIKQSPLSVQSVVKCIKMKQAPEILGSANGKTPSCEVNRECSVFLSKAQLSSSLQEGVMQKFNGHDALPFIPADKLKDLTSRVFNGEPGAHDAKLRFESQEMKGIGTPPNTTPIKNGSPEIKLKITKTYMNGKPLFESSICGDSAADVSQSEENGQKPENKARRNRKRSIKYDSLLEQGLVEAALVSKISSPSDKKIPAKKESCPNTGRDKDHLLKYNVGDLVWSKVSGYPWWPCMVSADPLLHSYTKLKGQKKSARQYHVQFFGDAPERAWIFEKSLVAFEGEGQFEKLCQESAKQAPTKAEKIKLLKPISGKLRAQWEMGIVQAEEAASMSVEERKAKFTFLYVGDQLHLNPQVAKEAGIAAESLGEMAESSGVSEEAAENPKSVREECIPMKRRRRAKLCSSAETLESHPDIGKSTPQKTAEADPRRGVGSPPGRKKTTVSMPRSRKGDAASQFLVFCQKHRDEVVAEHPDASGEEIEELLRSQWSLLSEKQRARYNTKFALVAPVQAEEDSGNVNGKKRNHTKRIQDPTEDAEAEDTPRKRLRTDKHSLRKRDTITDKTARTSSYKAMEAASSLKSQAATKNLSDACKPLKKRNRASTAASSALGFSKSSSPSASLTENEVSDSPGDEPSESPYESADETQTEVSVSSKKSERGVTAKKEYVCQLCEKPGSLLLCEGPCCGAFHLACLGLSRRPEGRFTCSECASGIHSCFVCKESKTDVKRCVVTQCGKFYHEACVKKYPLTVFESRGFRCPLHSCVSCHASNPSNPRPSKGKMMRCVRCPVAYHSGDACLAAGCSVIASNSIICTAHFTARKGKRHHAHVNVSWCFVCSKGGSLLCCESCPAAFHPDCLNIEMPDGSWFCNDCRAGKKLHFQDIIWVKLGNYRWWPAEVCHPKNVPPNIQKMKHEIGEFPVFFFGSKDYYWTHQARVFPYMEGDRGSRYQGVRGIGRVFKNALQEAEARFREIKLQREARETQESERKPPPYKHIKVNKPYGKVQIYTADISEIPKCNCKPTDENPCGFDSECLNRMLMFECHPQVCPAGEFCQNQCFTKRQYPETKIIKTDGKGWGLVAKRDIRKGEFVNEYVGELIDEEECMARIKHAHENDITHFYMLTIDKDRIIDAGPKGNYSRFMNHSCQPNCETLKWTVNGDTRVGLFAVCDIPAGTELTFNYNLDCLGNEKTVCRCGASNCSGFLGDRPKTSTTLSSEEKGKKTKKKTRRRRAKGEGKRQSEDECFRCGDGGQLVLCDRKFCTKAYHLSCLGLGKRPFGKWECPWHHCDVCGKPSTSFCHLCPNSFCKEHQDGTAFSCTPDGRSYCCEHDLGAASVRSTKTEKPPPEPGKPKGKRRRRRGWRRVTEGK
# [16] = viability of uninfected HEp-2 cells – cell-based, HTS, cytotoxicity control for RSV inhibitor project, dose response (AID 2410); format: functional; details: human respiratory syncytial virus
# [17] = antiviral protection against BTV-induced cell death – arbovirus, BSR cells, confirmation (AID 1250); format: functional;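 further: protection from viral cytopathic effect measured as cell viability by ATP luminescence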
# [18] = target: Genome polyprotein (dengue virus type 2, UniProt P29990); experiment: flavivirus cap methylation enzyme inhibition – biochemical, confirmation dose response, primary screen (AID 588689); format: functional
# [19] = target: T5, Long-chain-fatty-acid--AMP ligase FadD28 (Mycobacterium tuberculosis, UniProt P9WQ59); experiment: Fluorescence polarization aasay to screen for inhibitors that compete for the binding of FadD28 to a bisubstrate Measured in Biochemical System Using Plate Reader - 2147-01_Inhibitor_Dose_CherryPick_Activity.; format: functional, Mycobacterium tuberculosis H37Rv
# T5 sequence (P9WQ59 whole entry): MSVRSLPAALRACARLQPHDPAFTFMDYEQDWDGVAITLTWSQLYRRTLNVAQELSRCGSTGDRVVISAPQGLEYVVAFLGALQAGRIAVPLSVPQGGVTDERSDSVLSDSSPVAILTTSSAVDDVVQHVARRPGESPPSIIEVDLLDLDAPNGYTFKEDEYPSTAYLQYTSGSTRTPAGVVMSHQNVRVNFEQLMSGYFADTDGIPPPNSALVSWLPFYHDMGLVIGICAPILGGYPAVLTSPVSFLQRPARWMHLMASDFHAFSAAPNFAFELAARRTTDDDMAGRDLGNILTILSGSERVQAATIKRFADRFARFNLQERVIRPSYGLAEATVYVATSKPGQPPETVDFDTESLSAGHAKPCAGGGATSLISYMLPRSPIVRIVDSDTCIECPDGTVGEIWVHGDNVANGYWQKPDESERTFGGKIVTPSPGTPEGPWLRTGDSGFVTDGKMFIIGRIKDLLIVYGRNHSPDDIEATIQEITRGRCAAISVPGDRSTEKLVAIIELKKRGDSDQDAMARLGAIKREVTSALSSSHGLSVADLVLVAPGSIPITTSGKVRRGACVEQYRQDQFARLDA
# [20] = cells
# T1 sequence (Q00975 whole entry): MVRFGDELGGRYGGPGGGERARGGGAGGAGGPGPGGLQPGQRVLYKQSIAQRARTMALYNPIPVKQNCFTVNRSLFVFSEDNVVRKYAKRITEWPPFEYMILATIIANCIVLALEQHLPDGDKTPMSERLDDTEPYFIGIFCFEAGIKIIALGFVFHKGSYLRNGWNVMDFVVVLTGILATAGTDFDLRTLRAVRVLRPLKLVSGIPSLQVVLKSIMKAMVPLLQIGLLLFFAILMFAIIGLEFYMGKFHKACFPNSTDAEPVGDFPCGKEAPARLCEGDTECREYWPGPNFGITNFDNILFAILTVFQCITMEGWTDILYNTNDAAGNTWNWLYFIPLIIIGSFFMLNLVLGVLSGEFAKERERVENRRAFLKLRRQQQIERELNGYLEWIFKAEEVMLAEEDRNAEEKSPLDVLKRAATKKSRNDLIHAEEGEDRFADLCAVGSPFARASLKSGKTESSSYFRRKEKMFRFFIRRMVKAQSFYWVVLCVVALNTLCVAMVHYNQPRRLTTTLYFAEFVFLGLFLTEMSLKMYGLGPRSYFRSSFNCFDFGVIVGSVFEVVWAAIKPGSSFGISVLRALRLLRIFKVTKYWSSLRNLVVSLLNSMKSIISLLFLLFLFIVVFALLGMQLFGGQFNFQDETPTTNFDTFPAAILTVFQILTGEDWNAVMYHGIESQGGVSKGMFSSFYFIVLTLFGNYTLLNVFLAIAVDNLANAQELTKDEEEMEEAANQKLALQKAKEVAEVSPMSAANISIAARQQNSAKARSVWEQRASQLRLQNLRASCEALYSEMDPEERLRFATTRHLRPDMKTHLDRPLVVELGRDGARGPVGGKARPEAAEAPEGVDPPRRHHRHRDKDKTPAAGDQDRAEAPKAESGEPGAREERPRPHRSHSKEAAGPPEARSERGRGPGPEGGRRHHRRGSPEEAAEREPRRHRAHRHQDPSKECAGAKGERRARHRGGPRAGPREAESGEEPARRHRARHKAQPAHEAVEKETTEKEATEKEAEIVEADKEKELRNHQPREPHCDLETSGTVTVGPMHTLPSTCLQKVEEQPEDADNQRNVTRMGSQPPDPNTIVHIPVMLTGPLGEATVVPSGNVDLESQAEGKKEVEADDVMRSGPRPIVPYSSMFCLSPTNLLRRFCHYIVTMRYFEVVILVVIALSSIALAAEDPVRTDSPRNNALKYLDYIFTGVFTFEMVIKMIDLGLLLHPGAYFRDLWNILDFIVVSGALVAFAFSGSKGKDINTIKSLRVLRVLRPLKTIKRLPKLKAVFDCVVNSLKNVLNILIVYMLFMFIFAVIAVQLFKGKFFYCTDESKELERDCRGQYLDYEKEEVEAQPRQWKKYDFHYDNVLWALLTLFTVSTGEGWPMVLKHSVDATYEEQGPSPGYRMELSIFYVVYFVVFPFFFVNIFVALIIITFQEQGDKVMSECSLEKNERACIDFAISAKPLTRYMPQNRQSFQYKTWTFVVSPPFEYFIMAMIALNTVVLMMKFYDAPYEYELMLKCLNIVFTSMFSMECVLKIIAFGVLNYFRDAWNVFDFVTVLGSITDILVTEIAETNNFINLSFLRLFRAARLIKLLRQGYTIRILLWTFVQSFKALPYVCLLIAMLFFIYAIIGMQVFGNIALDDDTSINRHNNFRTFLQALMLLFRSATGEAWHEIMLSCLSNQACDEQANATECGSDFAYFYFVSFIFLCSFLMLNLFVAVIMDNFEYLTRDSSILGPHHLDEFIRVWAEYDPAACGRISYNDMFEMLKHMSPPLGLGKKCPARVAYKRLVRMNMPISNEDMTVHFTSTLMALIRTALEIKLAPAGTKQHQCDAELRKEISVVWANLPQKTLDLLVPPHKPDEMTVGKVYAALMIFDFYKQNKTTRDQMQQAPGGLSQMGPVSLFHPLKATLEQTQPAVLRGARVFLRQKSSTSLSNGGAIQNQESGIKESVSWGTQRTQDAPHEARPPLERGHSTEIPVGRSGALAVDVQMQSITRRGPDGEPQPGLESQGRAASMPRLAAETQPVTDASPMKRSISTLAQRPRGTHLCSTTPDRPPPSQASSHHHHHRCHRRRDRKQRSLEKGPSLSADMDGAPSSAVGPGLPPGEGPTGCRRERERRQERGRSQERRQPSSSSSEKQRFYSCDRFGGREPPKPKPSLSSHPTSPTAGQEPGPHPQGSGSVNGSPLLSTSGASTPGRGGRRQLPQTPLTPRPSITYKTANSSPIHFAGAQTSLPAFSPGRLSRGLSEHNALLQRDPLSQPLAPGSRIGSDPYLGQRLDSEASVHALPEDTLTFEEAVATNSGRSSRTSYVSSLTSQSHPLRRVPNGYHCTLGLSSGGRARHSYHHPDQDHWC
# T1 sequence (Q02410 whole entry): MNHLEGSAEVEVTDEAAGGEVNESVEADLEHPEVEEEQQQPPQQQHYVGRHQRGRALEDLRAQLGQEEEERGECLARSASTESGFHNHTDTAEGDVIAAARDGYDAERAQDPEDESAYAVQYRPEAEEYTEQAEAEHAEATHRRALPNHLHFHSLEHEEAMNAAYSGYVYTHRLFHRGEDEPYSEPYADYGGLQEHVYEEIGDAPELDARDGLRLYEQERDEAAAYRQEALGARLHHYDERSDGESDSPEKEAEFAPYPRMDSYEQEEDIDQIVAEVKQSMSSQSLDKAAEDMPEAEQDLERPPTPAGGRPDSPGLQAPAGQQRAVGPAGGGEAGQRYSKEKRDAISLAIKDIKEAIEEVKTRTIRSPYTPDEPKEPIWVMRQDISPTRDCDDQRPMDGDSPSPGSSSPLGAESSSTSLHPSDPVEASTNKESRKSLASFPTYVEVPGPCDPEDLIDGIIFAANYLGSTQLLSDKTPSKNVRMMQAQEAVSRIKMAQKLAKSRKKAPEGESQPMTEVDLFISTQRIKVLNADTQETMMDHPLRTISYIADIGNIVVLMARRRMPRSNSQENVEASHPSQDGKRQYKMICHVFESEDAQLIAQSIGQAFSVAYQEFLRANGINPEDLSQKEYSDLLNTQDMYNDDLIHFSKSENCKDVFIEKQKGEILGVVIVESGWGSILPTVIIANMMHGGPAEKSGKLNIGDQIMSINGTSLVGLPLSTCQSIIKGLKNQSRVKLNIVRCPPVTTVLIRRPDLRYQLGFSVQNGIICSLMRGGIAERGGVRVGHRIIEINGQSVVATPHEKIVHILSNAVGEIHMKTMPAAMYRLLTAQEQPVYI
# Chain of Protein Rev (P05866 whole entry): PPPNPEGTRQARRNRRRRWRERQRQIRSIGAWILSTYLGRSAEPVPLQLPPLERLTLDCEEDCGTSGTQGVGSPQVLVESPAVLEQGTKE
# Chain of DNA dC->dU-editing enzyme APOBEC-3A (P31941 whole entry): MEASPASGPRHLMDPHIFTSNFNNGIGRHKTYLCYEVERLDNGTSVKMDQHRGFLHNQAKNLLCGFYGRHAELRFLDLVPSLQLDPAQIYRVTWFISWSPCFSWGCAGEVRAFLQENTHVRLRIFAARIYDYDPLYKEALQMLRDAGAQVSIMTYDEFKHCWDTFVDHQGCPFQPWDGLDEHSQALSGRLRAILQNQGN
# Chain of Glucose-6-phosphate 1-dehydrogenase (P11413 whole entry): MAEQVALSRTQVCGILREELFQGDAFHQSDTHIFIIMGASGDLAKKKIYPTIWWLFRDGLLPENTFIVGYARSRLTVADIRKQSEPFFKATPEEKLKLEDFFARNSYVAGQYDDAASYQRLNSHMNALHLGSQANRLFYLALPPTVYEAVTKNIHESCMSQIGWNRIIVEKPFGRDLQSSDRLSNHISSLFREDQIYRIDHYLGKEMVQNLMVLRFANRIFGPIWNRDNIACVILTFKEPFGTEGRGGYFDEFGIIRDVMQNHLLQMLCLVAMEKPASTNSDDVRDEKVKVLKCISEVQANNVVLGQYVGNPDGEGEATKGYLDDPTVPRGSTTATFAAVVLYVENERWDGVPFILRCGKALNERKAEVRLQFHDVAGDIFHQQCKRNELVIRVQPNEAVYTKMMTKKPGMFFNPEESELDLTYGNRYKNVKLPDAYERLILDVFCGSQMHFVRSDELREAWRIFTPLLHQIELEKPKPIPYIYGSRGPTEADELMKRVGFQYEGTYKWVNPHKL
# Chain of Genome polyprotein (P29990 2492-3391 limits assumed): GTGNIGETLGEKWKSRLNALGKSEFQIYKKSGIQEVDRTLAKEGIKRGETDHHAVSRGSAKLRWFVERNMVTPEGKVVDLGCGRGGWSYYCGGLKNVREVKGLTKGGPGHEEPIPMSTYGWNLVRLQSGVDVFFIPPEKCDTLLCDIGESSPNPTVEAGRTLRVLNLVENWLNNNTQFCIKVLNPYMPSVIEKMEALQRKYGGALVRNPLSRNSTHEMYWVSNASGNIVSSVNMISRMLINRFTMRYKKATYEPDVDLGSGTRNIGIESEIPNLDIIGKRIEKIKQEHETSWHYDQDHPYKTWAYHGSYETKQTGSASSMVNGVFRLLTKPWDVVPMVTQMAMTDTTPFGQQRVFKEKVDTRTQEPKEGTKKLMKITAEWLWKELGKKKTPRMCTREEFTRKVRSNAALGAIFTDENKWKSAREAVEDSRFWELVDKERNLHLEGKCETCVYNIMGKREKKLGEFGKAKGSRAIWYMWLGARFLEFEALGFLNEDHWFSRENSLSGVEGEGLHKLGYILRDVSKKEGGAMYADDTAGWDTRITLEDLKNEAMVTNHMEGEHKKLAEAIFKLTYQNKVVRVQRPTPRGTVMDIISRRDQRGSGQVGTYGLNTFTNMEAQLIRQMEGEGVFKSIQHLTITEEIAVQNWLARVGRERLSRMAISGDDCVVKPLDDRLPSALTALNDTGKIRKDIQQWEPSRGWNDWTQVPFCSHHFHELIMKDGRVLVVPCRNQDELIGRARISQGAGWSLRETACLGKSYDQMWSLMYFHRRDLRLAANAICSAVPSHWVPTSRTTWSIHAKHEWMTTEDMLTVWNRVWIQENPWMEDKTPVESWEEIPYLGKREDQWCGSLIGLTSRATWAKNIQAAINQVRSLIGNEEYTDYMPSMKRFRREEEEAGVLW
structure (smiles),measurement,setting,value
Cc1nc(Nc2ccncc2)c2oc3ccccc3c2n1,IC50,[1],> 79.4 µM (not active)
same,EC50,[2],2.47 µM (active)
same,EC50,[3],> 60 µM (not active)
same,EC50,[4],> 91.2 µM (inactive)
same,EC50,[5],> 91.2 µM (inactive)
COc1cccc(CNS(=O)(=O)c2ccc3c(c2)NC(=O)CS3)c1,EC50,[6],> 50 µM (active)
Cc1cc(C)c2c(=O)n(CC(=O)Nc3ccc(Br)c(C)c3)sc2n1,IC50,[7],17.5 µM (not active)
same,IC50,[8],> 56.8 µM (not active)
same,IC50,[9],> 50 µM (inactive)
same,IC50,[10],4.54 µM (active)
same,IC50,[11],> 100 µM (inactive)
same,IC50,[12],49.2 µM (inactive)
N#C/C(=C/c1ccc(O)c(O)c1)C(=O)NCc1ccc(Cl)cc1,IC50,[7],35.9 µM (not active)
same,IC50,[10],11.6 µM (not active)
same,AC50,[13],6.32 µM (active)
same,IC50,[14],34.5 µM (active)
same,AC50,[15],5.16 µM (active)
O=C(O)CC/C(=C\c1ccc(N2CCCC2)c([N+](=O)[O-])c1)c1nc2ccccc2s1,CC50,[16],33.3 µM (active)
same,IC50,[17],27.8 µM (active)
same,IC50,[18],43.1 µM (active)
same,AC50,[19],> 100 µM (inactive)
COc1ccccc1NC1=NC(c2ccc(Cl)cc2)N=C(N)N1 (stereo unspecified),IC50,[1],> 79.4 µM (not active)
COc1ccc(OC)c(-n2c(SCC(=O)NCc3ccco3)nnc2-c2c[nH]c3ccccc23)c1,IC50,[20],> 50 µM (active)
O=C(Cc1ccc(Br)cc1)c1ccc(O)cc1O,EC50,[6],> 50 µM (active)
CC(=N)/C(C#N)=C(/O)COc1ccc(Cl)cc1Cl,CC50,[16],> 50 µM (active)
same,IC50,[20],49.6 µM (active)
